Laboratory results taken from ChEMBL document CHEMBL5046253, “Synthesis and bioevaluation of diaryl urea derivatives as potential antitumor agents for the treatment of human colorectal cancer” (Eur J Med Chem, 2022).

Assays:
[1] = target: Phosphatidylinositol 4,5-bisphosphate 3-kinase catalytic subunit alpha isoform (Homo sapiens, UniProt P42336); assay: Inhibition of PI3Kalpha (unknown origin) using PIP2 as substrate in presence of ATP incubated for 60 mins by ADP-glo based luminescence assay
[2] = target: Serine/threonine-protein kinase mTOR (Homo sapiens, UniProt P42345); assay: Inhibition of mTOR (unknown origin) using U-Light-4E-BP1 peptide as a substrate in presence of ATP incubated for 45 mins by Lance ultra assay
[3] = system: MDA-MB-231; assay: Antiproliferative activity against human MDA-MB-231 cells assessed as reduction in cell viability incubated for 48 hrs by MTT assay; format: functional, cell-based; details: MDA-MB-231, 48 h
[4] = system: HeLa; assay: Antiproliferative activity against human HeLa cells assessed as reduction in cell viability incubated for 48 hrs by MTT assay; format: functional, cell-based
[5] = system: CNE-2; assay: Antiproliferative activity against human CNE-2 cells assessed as reduction in cell viability incubated for 48 hrs by MTT assay; format: functional, cell-based; details: CNE-2, 48 h
[6] = system: HCT-116; assay: Antiproliferative activity against human HCT-116 cells assessed as reduction in cell viability incubated for 48 hrs by MTT assay; format: functional, cell-based; details: HCT-116, 48 h
[7] = target: Phosphatidylinositol 4,5-bisphosphate 3-kinase catalytic subunit beta isoform (Homo sapiens, UniProt P42338); assay: Inhibition of PI3Kbeta (unknown origin) using PIP2 as substrate in presence of ATP incubated for 60 mins by ADP-glo based luminescence assay
[8] = target: Phosphatidylinositol 4,5-bisphosphate 3-kinase catalytic subunit gamma isoform (Homo sapiens, UniProt P48736); assay: Inhibition of PI3Kgamma (unknown origin) using PIP2 as substrate in presence of ATP incubated for 60 mins by ADP-glo based luminescence assay
[9] = target: T1, Phosphatidylinositol 4,5-bisphosphate 3-kinase catalytic subunit delta isoform (Homo sapiens, UniProt O00329); assay: Inhibition of PI3Kdelta (unknown origin) using PIP2 as substrate in presence of ATP incubated for 60 mins by ADP-glo based luminescence assay
T1 sequence (O00329 whole entry): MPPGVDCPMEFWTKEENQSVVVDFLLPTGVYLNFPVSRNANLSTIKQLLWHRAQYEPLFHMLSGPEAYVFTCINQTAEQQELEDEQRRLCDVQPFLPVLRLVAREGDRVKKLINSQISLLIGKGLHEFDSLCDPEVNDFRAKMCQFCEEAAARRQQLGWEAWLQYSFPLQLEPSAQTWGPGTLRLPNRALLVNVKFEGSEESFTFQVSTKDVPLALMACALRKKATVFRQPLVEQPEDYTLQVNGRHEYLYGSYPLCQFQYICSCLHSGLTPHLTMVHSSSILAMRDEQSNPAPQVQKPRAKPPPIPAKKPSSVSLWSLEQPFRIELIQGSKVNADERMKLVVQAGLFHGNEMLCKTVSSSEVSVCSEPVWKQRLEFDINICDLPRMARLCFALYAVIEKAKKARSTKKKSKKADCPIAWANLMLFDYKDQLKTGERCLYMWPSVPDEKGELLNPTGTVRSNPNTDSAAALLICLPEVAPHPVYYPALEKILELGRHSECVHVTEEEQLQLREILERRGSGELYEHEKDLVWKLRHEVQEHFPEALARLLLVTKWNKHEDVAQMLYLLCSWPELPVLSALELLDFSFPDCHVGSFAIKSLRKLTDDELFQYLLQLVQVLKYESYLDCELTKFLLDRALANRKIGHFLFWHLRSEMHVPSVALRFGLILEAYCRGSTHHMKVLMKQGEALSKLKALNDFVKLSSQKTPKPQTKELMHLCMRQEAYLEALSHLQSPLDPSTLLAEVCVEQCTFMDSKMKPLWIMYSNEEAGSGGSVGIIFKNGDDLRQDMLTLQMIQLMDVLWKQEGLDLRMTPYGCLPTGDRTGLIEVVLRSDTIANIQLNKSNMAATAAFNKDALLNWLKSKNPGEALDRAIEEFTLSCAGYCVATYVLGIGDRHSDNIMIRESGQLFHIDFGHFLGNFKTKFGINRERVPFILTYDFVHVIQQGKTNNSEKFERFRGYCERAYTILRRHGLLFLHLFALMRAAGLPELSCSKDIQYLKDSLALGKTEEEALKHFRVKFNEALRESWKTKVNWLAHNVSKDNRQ

[10] = system: MCF7; assay: Antiproliferative activity against human MCF7 cells assessed as reduction in cell viability incubated for 48 hrs by MTT assay; format: functional, cell-based; details: MCF7, 48 h
[11] = system: HepG2; assay: Antiproliferative activity against human HepG2 cells assessed as reduction in cell viability incubated for 48 hrs by MTT assay; format: functional, cell-based; details: HepG2, 48 h
[12] = system: A-431; assay: Antiproliferative activity against human A431 cells harboring wild type EGFR mutant assessed as reduction in cell viability incubated for 72 hrs by celltiter-glo assay; format: functional, cell-based; details: A-431, 72 h
[13] = system: NCI-H1975; assay: Antiproliferative activity against human NCI-H1975 cells harboring EGFR L858R/T790M double mutant assessed as reduction in cell viability incubated for 72 hrs by celltiter-glo assay; format: functional, cell-based; details: NCI-H1975, 72 h
[14] = system: BaF3; assay: Antiproliferative activity against mouse BaF3 cells harboring EGFR L858R/T790M/C797S mutant assessed as reduction in cell viability incubated for 72 hrs by celltiter-glo assay; format: toxicity, cell-based; details: BaF3, 72 h

Phosphatidylinositol 4,5-bisphosphate 3-kinase catalytic subunit gamma isoform, sequence (P48736 whole entry, canonical isoform): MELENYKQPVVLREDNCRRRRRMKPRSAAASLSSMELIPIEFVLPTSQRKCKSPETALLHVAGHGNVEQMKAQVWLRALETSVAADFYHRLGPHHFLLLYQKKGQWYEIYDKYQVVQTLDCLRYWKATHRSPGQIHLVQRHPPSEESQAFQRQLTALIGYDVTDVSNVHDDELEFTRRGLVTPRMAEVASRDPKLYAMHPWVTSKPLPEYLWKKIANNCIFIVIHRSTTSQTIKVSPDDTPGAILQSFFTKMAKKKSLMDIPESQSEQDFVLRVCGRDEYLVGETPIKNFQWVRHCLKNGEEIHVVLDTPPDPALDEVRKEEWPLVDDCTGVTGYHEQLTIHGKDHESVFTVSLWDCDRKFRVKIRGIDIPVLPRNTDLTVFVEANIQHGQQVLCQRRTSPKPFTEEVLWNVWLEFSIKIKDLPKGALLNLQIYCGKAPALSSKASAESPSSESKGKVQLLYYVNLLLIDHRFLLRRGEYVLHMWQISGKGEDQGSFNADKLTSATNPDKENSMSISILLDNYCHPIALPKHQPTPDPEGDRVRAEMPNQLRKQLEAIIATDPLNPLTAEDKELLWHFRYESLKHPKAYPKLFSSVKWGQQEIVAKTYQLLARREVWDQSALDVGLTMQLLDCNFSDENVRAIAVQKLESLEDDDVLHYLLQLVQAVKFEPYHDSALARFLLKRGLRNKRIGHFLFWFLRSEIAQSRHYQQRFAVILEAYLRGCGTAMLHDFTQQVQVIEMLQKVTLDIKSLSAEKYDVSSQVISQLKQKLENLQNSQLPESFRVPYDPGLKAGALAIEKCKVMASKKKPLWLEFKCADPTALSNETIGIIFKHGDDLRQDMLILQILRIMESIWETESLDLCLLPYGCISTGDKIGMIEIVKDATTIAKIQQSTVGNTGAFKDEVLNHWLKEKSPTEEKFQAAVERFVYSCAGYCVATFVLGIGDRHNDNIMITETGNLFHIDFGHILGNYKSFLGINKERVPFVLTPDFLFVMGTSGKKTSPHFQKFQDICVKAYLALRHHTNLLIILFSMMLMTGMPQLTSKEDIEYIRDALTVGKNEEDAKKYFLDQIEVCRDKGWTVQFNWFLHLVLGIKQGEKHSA
Phosphatidylinositol 4,5-bisphosphate 3-kinase catalytic subunit alpha isoform, sequence (P42336 whole entry, canonical isoform): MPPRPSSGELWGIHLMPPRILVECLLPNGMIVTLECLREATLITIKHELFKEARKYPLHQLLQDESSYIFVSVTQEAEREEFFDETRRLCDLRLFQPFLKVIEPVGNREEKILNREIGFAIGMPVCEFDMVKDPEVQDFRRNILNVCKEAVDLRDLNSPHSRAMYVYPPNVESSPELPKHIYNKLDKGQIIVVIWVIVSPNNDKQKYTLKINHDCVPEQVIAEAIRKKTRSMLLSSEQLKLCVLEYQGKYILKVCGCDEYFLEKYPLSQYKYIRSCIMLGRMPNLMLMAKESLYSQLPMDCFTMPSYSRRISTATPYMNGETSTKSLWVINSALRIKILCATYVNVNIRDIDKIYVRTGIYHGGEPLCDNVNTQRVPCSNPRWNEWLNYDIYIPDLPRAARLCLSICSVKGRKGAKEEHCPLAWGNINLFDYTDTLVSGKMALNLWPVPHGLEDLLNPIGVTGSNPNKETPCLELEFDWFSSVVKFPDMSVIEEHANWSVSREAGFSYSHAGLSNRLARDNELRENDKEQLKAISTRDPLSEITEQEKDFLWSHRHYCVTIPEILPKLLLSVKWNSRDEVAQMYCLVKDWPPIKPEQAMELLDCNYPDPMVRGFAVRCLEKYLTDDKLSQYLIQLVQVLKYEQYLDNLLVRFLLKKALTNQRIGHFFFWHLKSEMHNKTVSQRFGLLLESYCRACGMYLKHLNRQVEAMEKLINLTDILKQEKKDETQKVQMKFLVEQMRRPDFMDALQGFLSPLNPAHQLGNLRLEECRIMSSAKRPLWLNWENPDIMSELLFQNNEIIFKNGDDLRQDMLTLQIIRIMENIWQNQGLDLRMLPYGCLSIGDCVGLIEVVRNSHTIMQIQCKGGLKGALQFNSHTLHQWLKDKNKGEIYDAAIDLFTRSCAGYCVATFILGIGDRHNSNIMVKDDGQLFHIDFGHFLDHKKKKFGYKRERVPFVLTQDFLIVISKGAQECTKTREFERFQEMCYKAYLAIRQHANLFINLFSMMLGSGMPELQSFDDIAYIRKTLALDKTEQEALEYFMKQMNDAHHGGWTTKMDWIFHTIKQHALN
Phosphatidylinositol 4,5-bisphosphate 3-kinase catalytic subunit beta isoform, sequence (P42338 whole entry, canonical isoform): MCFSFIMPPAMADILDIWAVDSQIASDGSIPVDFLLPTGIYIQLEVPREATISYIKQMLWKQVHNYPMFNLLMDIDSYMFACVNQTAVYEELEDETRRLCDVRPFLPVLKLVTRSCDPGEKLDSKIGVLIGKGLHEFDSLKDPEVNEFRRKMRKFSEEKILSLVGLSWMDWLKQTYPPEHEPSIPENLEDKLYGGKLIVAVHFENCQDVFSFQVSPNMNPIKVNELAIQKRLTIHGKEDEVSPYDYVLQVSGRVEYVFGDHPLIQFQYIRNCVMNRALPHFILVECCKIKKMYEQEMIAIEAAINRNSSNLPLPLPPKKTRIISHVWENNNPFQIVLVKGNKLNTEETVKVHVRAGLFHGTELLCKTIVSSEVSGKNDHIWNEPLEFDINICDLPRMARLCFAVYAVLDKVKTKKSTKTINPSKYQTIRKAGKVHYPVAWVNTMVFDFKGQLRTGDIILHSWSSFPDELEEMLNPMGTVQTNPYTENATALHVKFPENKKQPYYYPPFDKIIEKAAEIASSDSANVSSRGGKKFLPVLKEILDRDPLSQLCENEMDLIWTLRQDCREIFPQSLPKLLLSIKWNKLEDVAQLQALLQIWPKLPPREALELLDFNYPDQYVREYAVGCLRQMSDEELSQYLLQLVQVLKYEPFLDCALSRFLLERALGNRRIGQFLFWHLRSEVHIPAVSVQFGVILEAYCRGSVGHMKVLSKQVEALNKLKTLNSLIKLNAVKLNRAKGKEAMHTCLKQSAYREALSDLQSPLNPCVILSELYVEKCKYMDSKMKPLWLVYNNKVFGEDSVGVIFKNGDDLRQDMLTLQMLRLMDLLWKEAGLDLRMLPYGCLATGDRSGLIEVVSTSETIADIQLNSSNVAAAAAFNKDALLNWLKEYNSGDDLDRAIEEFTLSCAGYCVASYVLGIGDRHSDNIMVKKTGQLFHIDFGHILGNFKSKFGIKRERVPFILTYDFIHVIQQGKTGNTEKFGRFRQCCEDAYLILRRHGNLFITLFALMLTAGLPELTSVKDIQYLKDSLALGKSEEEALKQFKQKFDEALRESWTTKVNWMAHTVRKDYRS

Structure (SMILES)	IC50 [1]	IC50 [2]	IC50 [3]	IC50 [4]	IC50 [5]	IC50 [6]	IC50 [7]	IC50 [8]	IC50 [9]	IC50 [10]	IC50 [11]	IC50 [12]	IC50 [13]	IC50 [14]
NC(=O)[C@@H]1CCCN1C(=O)c1ccc(NC(=O)Nc2ccc(-c3nc(N4CCOCC4)nc(N4C[C@@H]5OCCO[C@H]5C4)n3)cc2)cc1	4.3 nM	5.7 nM	620 nM	560 nM	950 nM	780 nM								
C[C@H](NC(=O)c1ccc(NC(=O)Nc2ccc(-c3nc(N4CCOCC4)nc(N4CCOC[C@@H]4C)n3)cc2)cc1)C(N)=O	5 nM	0.9 nM					47.1 nM	34 nM	44.1 nM					
NC(=O)C1CCCN(C(=O)c2ccc(NC(=O)Nc3ccc(-c4nc(N5CCOCC5)nc(N5CCOCC5)n4)cc3)cc2)C1 (centres undefined)	1.6 nM	2.1 nM	250 nM	9690 nM	10200 nM	740 nM				2290 nM	130 nM	242 nM	601 nM	294 nM
COC(=O)[C@@H]1C[C@@H](O)CN1C(=O)c1ccc(NC(=O)Nc2ccc(-c3nc(N4CCOCC4)nc(N4CCOCC4)n3)cc2)cc1	28.7 nM	3.3 nM	430 nM	1430 nM	2680 nM	310 nM				700 nM	8820 nM			
NC(=O)[C@H]1CCCN1C(=O)c1ccc(NC(=O)Nc2ccc(-c3nc(N4CCOCC4)nc(N4CCOCC4)n3)cc2)cc1	0.6 nM	2.3 nM	7350 nM	10400 nM	180 nM	290 nM	3.2 nM	7.4 nM	13 nM	10400 nM				
NC(=O)[C@@H]1CCCN1C(=O)c1ccc(NC(=O)Nc2ccc(-c3cc(N4CCOCC4)nc(N4CCOCC4)n3)cc2)cc1	13.8 nM	7.4 nM	11300 nM	13500 nM	1950 nM	8040 nM				7890 nM	24200 nM			
CN(C)[C@@H]1C[C@@H](C(N)=O)N(C(=O)c2ccc(NC(=O)Nc3ccc(-c4nc(N5CCOCC5)nc(N5CCOCC5)n4)cc3)cc2)C1	7 nM	2.2 nM	14600 nM	12000 nM	7890 nM	2510 nM	14.9 nM	19.4 nM	29.1 nM			2500 nM	2880 nM	3350 nM
C[C@H]1COCCN1c1ccnc(-c2ccc(NC(=O)Nc3ccc(C(=O)N4CCC[C@H]4C(N)=O)cc3)cc2)n1	28.7 nM	9.2 nM												
NC(=O)[C@@H]1CCCN1C(=O)Nc1ccc(-c2nccc(N3CCOCC3)n2)cc1	> 1000 nM	10.3 nM												
O=C(Nc1ccc(C(=O)N2CCCC2C(=O)O)cc1)Nc1ccc(-c2nc(N3CCOCC3)nc(N3CCOCC3)n2)cc1 (centres undefined)	11 nM	3.7 nM	29100 nM	11700 nM	2560 nM					7150 nM				
C[C@H]1COCCN1c1nc(-c2ccc(NC(=O)Nc3ccc(C(=O)N4CCC(C(N)=O)CC4)cc3)cc2)nc(N2CCOCC2)n1	4.3 nM	1.2 nM	1740 nM	210 nM	670 nM	380 nM					540 nM			
NC(=O)[C@@H]1C[C@@H]2C[C@@H]2N1C(=O)c1ccc(NC(=O)Nc2ccc(-c3nc(N4CCOCC4)nc(N4CCOCC4)n3)cc2)cc1	1.9 nM	2 nM	9890 nM	15600 nM	9160 nM	1960 nM				10500 nM				
NC(=O)[C@@H]1CCCN1C(=O)c1cnc(Nc2ccc(-c3nc(N4CCOCC4)nc(N4CCOCC4)n3)cc2)nc1	680 nM													
CN(C)[C@H]1C[C@@H](C(N)=O)N(C(=O)c2ccc(NC(=O)Nc3ccc(-c4nc(N5CCOCC5)nc(N5CCOCC5)n4)cc3)cc2)C1	9.1 nM	3.1 nM	19200 nM	28500 nM	6670 nM	2480 nM					18700 nM			
NC(=O)[C@H]1CCCN1C(=O)c1ccc(NC(=O)Nc2ccc(-c3cc(N4CCOCC4)nc(N4CCOCC4)n3)cc2)cc1	5.7 nM	7.3 nM	16400 nM	6980 nM	3830 nM	6130 nM								
NC(=O)C1CCCN1C(=O)c1ccc(NC(=O)Nc2ccc(-c3nc(N4CCOCC4)nc(N4CCOCC4)n3)cc2)cc1 (centres undefined)	0.6 nM	1.4 nM	6780 nM	8600 nM	520 nM	200 nM				4850 nM				
CN(C)C1CCN(C(=O)c2cnc(Nc3ccc(-c4nc(N5CCOCC5)nc(N5CCOCC5)n4)cc3)nc2)CC1	> 1000 nM													
NC(=O)C1CCCCN1C(=O)c1ccc(NC(=O)Nc2ccc(-c3nc(N4CCOCC4)nc(N4CCOCC4)n3)cc2)cc1 (centres undefined)	1.6 nM	3 nM	5640 nM	10300 nM	1740 nM	3780 nM					16600 nM			
NC(=O)[C@@H]1CCCN1C(=O)c1ccc(NC(=O)Nc2ccc(-c3cc(N4CCOCC4)ncn3)cc2)cc1	> 1000 nM													
CN(C)C1CCN(C(=O)c2ccc(NC(=O)Nc3ccc(-c4cc(N5CCOCC5)nc(N5CCOCC5)n4)cc3)cc2)CC1	31.8 nM	6.2 nM	7570 nM	4740 nM	1460 nM	1610 nM				9280 nM				
NC(=O)C1CCN(C(=O)c2ccc(NC(=O)Nc3ccc(-c4nc(N5CCOCC5)nc(N5CCOCC5)n4)cc3)cc2)CC1	0.7 nM	1.9 nM	900 nM	1390 nM	4170 nM	1510 nM				3810 nM	510 nM	585 nM	2440 nM	292 nM
COC(=O)[C@@H]1CCCN1C(=O)c1ccc(NC(=O)Nc2ccc(-c3nc(N4CCOCC4)nc(N4CCOCC4)n3)cc2)cc1	19 nM	4.2 nM	10400 nM	9710 nM	3990 nM	2700 nM				9030 nM	10400 nM			
NC(=O)C1CCCCN1C(=O)c1ccc(NC(=O)Nc2ccc(-c3cc(N4CCOCC4)nc(N4CCOCC4)n3)cc2)cc1 (centres undefined)	16.5 nM	7.6 nM	5210 nM	1510 nM	2000 nM	2570 nM				3160 nM	17700 nM			
C[C@@H]1COCCN1c1nc(-c2ccc(NC(=O)Nc3ccc(C(=O)N4CCC[C@H]4C(N)=O)cc3)cc2)nc(N2CCOCC2)n1	1.8 nM	1 nM	1300 nM	460 nM	350 nM	2190 nM				3500 nM	1030 nM			
CN(C)C1CCN(C(=O)c2ccc(NC(=O)Nc3ccc(-c4nc(N5CCOCC5)nc(N5C[C@@H]6OCCO[C@H]6C5)n4)cc3)cc2)CC1	10.2 nM	4.8 nM	1920 nM	7940 nM	290 nM	1300 nM				2260 nM	200 nM			
